Experimental data as given in patent publication US8293705B2, “HCV protease inhibitors and uses thereof” (Avila Therapeutics, Inc., priority 2007, dated 2012).
Values joined by “and” are separate entries in the source; they are usually repeats but may differ in a detail not shown here. Equal entries are not always repeated.

Tests used:
[1] = biological target: T1, HCV NS3/4A 1b protease A156T (Hepatitis C virus genotype 1b, UniProt Q9WMX2, A1182T); assay: HCV protease FRET assay (IC50_APP), Example 16; type: biochemical
T1 construct: 10× stocks of NS3/4A protease enzyme from Bioenza (Mountain View, Calif.); purchased Bioenza (Mountain View, Calif.)

[2] = biological target: T2, HCV NS3/4A 1b protease wild type (Hepatitis C virus genotype 1b, UniProt Q9WMX2); assay: HCV protease FRET assay (IC50_APP), Example 16; type: biochemical
T2 construct: 10× stocks of NS3/4A protease enzyme from Bioenza (Mountain View, Calif.); purchased Bioenza (Mountain View, Calif.)

[3] = biological target: T3, HCV NS3/4A 1b protease D168A (Hepatitis C virus genotype 1b, UniProt Q9WMX2, D1194A); assay: HCV protease FRET assay (IC50_APP), Example 16; type: biochemical
T3 construct: 10× stocks of NS3/4A protease enzyme from Bioenza (Mountain View, Calif.); purchased Bioenza (Mountain View, Calif.)

[4] = test system: HCV RNA replicon in cell line ET (luc-ubi-neo/ET), human Huh7 hepatoma; assay: HCV RNA replicon assay, Example 14 Method A; type: cell-based; conditions: Hepatitis C virus, Huh-7, assay of Example 14, 72 hr; for IC50: read-out: Inhibition, Replicon (IC50); for IC90: read-out: Inhibition, Replicon, IC90 value
Description: The compounds were assayed to evaluate the antiviral activity and cytotoxicity of compounds in vitro using HCV RNA replicons. This assay used the cell line ET (luc-ubi-neo/ET), which is a human Huh7 hepatoma cell line that contains an HCV RNA replicon with a stable luciferase (Luc) reporter and three cell culture-adaptive mutations. […]
The ET cell line was grown in Dulbecco's modified essential media (DMEM), 10% fetal bovine serum (FBS), 1% penicillin-streptomycin (pen-strep), 1% glutamine, 250 μg/mL G418 in a 5% CO2 incubator at 37° C. All cell culture reagents were obtained from Mediatech (Manassas, Va.). Cells were trypsinized (1% trypsin:EDTA) and plated out at 5×10^3 cells/well in white 96-well assay plates (Costar) dedicated to cell number (cytotoxicity) or antiviral activity assessments. Drugs were added at six 3-fold concentrations each and the assay was run in DMEM, 5% FBS, 1% pen-strep, 1% glutamine. Human interferon alpha-2b (PBL Biolabs, New Brunswick, N.J.) was included in each run as a positive control compound. Cells were processed 72 hr post drug addition when the cells are still subconfluent. Antiviral activity was measured by analyzing replicon-derived luciferase activity using the Steady-Glo Luciferase Assay System (Promega, Madison, Wis.) according to manufacturer's instruction. The number of cells in each well was determined by CytoTox-1 reagent (Promega). Compound profile was derived by calculating applicable EC50 (effective concentration inhibiting virus replication by 50%), EC90 (effective concentration inhibiting virus replication by 90%), IC50 (concentration decreasing cell viability by 50%) and SI50 (selective index: […]) values.

[5] = biological target: T4, HCV NS3/4A wild type (Hepatitis C virus genotype 1b, UniProt Q9WMX2); assay: Mass spectrometric analysis of covalent modification (MALDI-TOF); type: binding; conditions: 10× excess of test compound to protein; MALDI-TOF
T4 construct: HCV NS3/4A wild type (wt) was incubated for 1 hr at a 10× fold access of test compound to protein; purchased Bioenza, Calif
Description: Mass spectrometric analysis of HCV wild type or HCV variant C159S in the presence of test compound is performed. 100 pmols of HCV wild type (Bioenza, Calif.) is incubated with test compound for 1 hr and 3 hrs at 10-fold access of test compound to protein. 1 ul aliquots of the samples (total volume of 4.24 ul) are diluted with 10 ul of 0.1% TFA prior to micro C4 ZipTipping directly onto the MALDI target using Sinapinic acid as the desorption matrix (10 mg/mL in 0.1% TFA:Acetonitrile 50:50). Analyses are performed on a Shimadzu Biotech Axima TOF2 (Shimadzu Instruments) matrix-assisted-laser desorption/ionization Time-of-Flight (MALDI-TOF) mass spectrometer. The same procedure is carried out on 100 pmols of HCV C159S mutant of HCV protease for 3 hrs at 10-fold excess of test compound to protein.
As depicted in FIGS. 1 and 2, mass spectrometric analysis of HCV wild type in the presence of test compounds I-1 and I-25 was performed using the following protocol: HCV NS3/4A wild type (wt) was incubated for 1 hr at a 10× fold access of test compound to protein. 2 ul aliquots of the samples were diluted with 10 ul of 0.1% TFA prior to micro C4 ZipTipping directly onto the MALDI target using Sinapinic acid as the desorption matrix (10 mg/ml in 0.1% TFA:Acetonitrile 50:50). For intact protein mass measurement the instrument was set in linear mode using a pulsed extraction setting of 24,500 and apomyoglobin as the standard to calibrate the instrument.

[6] = biological target: T1, HCV NS3/4A 1b protease A156T; assay: HCV protease FRET assay (IC50), Example 15; type: biochemical; conditions: Inhibition (IC50), HCV A156T, FRET, 30 min pre-incubation at 25° C.
Description: (§1) The following protocol was used to generate IC50 values as depicted for compound 239 in Table 4, above. The protocol is a modified FRET-based assay (v—02) from In Vitro Resistance Studies of HCV Serine Protease Inhibitors, 2004, JBC, vol. 279, No. 17, pp 17508-17514.
(§2) 10× stocks of NS3/4A protease enzyme from Bioenza (Mountain View, Calif.) and 1.13× 5-FAM/QXL™520 FRET peptide substrate from Anaspec (San Jose, Calif.) were prepared in 50 mM HEPES, pH 7.8, 100 mM NaCl, 5 mM DTT and 20% glycerol. 5 μL of each enzyme were pre-incubated in a Corning (#3573) 384-well, black, non-treated microtiter plate (Corning, N.Y.) for 30 min at 25° C. with a 0.5 μL volume of 50% DMSO and serially diluted compounds prepared in 50% DMSO. Protease reactions were started with the addition of 45 μL of the FRET substrate and monitored for 120 minutes at λex487/λem514 through Quad^4 monochromoters in a Synergy^4 plate reader from BioTek (Winooski, Vt.). At the conclusion of each assay, progress curves from each well were examined for linear reaction kinetics and fit statistics (R^2, absolute sum of squares). Initial velocity (0 minutes to 30+ minutes) from each reaction was determined from the slope of a plot of relative fluorescence units vs time (minutes) and then plotted against inhibitor concentration to estimate IC50 from log [Inhibitor] vs Response, Variable Slope model in GraphPad Prism from GraphPad Software (San Diego, Calif.).
(§3) The compound numbers correspond to the compound numbers in Table 3. […] ;

[7] = biological target: T2, HCV NS3/4A 1b protease wild type; assay: HCV protease FRET assay (IC50), Example 15; type: biochemical
Description: as §1, §2, §3

[8] = biological target: T3, HCV NS3/4A 1b protease D168A; assay: HCV protease FRET assay (IC50), Example 15; type: biochemical; conditions: Inhibition (IC50), HCV D168A, FRET, 30 min pre-incubation at 25° C.
Description: as §1, §2, §3

[9] = biological target: HCV NS3/4A D168A (Hepatitis C virus genotype 1b, UniProt Q9WMX2, D1194A); assay: Mass spectrometric analysis of covalent modification; type: binding; conditions: methods described in Example 18
Description: HCV is incubated with test compound for 3 hrs prior to tryptic digestion. Todoacetamide is used as the alkylating agent after compound incubation. For tryptic digests a 2 ul aliquot (0.06 ug/ul) is diluted with 10 ul of 0.1% TFA prior to micro C18 Zip Tipping directly onto the MALDI target using alpha cyano-4-hydroxy cinnamic acid as the matrix (5 mg/mL in 0.1% TFA:Acetonitrile 50:50).
For tryptic digests the instrument is set in Reflectron mode with a pulsed extraction setting of 1800. Calibration is done using the Laser Biolabs Pep Mix standard (1046.54, 1296.69, 1672.92, 2093.09, 2465.20). For CID/PSD analysis the peptide is selected using cursors to set ion gate timing and fragmentation occurred at a laser power about 20% higher and He is used as the collision gas for CID. Calibration for fragments is done using the P14R fragmentation calibration for the Curved field Reflectron.
As depicted in FIGS. 4, 5, 6, and 7, mass spectrometric analysis of HCV mutants in the presence of compound I-11 was performed. […] 2 ul aliquots of the samples were diluted with 10 ul of 0.1% TFA prior to micro C4 ZipTipping directly onto the MALDI target using Sinapinic acid as the desorption matrix (10 mg/ml in 0.1% TFA:Acetonitrile 50:50). […]

[10] = biological target: T5, NS3 protease self-cleavage in Huh-7-Luc-Neo-ET replicon cells (Hepatitis C virus genotype 1b, UniProt Q9WMX2, E1202G/T1280I); assay: Inhibition of protease self cleavage in replicon cells (washout); type: cell-based; conditions: 16 hours incubation, then removed
T5 construct: blotted with polyclonal anti NS3 antibody (Bioenza, Calif.)
Description: Huh-7-Luc-Neo-ET cells were plated in Replicon Assay Medium (RPMI supplemented with 5% FBS, 1× non-essential amino acids and pen/strep) at a density of 1×10^5 cells/well in 12 well plates. Eight hours later the media was removed and replaced with 1 ml media containing test compound (5 wells per compound) and 0.02% DMSO and the cells were returned to the incubator overnight. Sixteen hours later 1 well from each compound and 1 untreated well were washed with PBS, then lysed and scraped into 30 ul of Cell Extraction Buffer (Biosource, Camarillo, Calif.) plus Complete Protease Inhibitor (Roche, Indianapolis, Ind.). The remaining wells were rinsed 2× with PBS then fed with Replicon Media and returned to the incubator. […]
Cell lysates were separated by SDS-Page (4-20%) and transferred to Immobilon-P PVDF membrane (Millipore Corporation, MA) and blotted with polyclonal anti NS3 antibody (Bioenza, Calif.). Blots were scanned on an Odyssey infrared scanner from Licor and the FL band and cleavage products were quantified separately using the Licor software provided with the scanner. The cleavage product was calculated as a percentage of the total NS3 in each sample and then normalized to the DMSO control so that the DMSO control reflects 100% activity.

**Q.** What does the source list for `C=CC(=O)NCC(=O)N1C[C@H](OC(=O)N2Cc3cccc(F)c3C2)C[C@H]1C(=O)N[C@]1(C(=O)NS(=O)(=O)C2CC2)C[C@H]1C=C` [Compound I-6, (3R,5S)-1-(2-acrylamidoacetyl)-5-((1R,2S)-1-(cyclopropylsulfonylcarbamoyl)-2-vinylcyclopropylcarbamoyl)pyrrolidin-3-yl 4-fluoroisoindoline-2-carboxylate]?
**A.** IC50 [1]: < 10 nM; IC50 [2]: < 10 nM; IC50 [3]: 100 to 1000 nM; IC50 [4]: 100 to 1000 nM; IC90 [4]: 1000 to 10000 nM; Covalent modification of HCV NS3/4A wild type [5]: measurable covalent modification; IC50 [6]: < 10 nM; IC50 [7]: < 10 nM; IC50 [8]: 10 to 100 nM

**Q.** Which IC50 [1] does the source give for `C=C[C@@H]1C[C@]1(NC(=O)[C@@H]1C[C@@H](OC(=O)N2Cc3cccc(F)c3C2)CN1C(=O)CNC(=O)/C=C/C)C(=O)NS(=O)(=O)C1CC1` [Compound I-7, (3R,5S)-1-(2-(E)-but-2-enamidoacetyl)-5-((1R,2S)-1-(cyclopropylsulfonylcarbamoyl)-2-vinylcyclopropylcarbamoyl)pyrrolidin-3-yl-4-fluoroisoindoline-2-carboxylate] here?
**A.** 100 to 1000 nM

**Q.** What about the IC50 [2] of the same compound?
**A.** 100 to 1000 nM

**Q.** And the IC50 [3]?
**A.** 1000 to 10000 nM

**Q.** And the IC50 [7]?
**A.** 10 to 100 nM

**Q.** And the IC50 [8]?
**A.** 1000 to 10000 nM

**Q.** Which results are given for `C=CC(=O)NC[C@H](NC(=O)OC1CCCC1)C(=O)N1C[C@H](OC(=O)N2Cc3cccc(F)c3C2)C[C@H]1C(=O)N[C@]1(C(=O)NS(=O)(=O)C2CC2)C[C@H]1C=C` [Compound I-19, (3R,5S)-1-((S)-3-acrylamido-2-(cyclopentyloxycarbonylamino)propanoyl)-5-((1R,2S)-1-(cyclopropylsulfonylcarbamoyl)-2-vinylcyclopropylcarbamoyl)pyrrolidin-3-yl 4-fluoroisoindoline-2-carboxylate]?
**A.** Covalent modification of HCV NS3/4A D168A [9]: measurable covalent modification; IC50 [1]: < 10 nM; IC50 [2]: < 10 nM; IC50 [3]: 10 to 100 nM; Covalent modification of HCV NS3/4A wild type [5]: measurable covalent modification

**Q.** What does the source list for `C=CC(=O)O[C@H](C)[C@H](NC(=O)OC(C)(C)C)C(=O)N1C[C@H](OC(=O)N2Cc3cccc(F)c3C2)C[C@H]1C(=O)N[C@]1(C(=O)NS(=O)(=O)C2CC2)C[C@H]1C=C` [Compound I-24, (3R,5S)-1-((2S,3R)-3-(acryloyloxy)-2-(tert-butoxycarbonylamino)butanoyl)-5-((1R,2S)-1-(cyclopropylsulfonylcarbamoyl)-2-vinylcyclopropylcarbamoyl)pyrrolidin-3-yl 4-fluoroisoindoline-2-carboxylate]?
**A.** Covalent modification of HCV NS3/4A D168A [9]: measurable covalent modification; IC50 [1]: < 10 nM; IC50 [2]: < 10 nM; IC50 [3]: < 10 nM; IC50 [4]: 10 to 100 nM; IC90 [4]: 100 to 1000 nM; Covalent modification of HCV NS3/4A wild type [5]: measurable covalent modification

**Q.** With `CCC[C@H](NC(=O)[C@@H]1[C@H]2CCC[C@H]2CN1C(=O)[C@@H](NC(=O)[C@@H](NC(=O)c1cnccn1)C1CCCCC1)C(C)(C)C)C(=O)C(=O)NC1CC1` [VX-950] as the compound, how does the “Time to virtually complete return of NS3 self-cleaving activity after drug removal” value [10] read?
**A.** 4 h and 8 h
